# Measurements reported in ChEMBL document CHEMBL1124592, “In vitro metabolic transformations of vinblastine: oxidations catalyzed by human ceruloplasmin” (J Med Chem, 1989).
# System: CCRF-CEM
# Assay: Inhibition against […]-T-Cell leukemic cell line
# Type: functional, cell-based
# Conditions: Homo sapiens
row,Compound,IC50
1,CCC(=O)CC1CN(C=O)CCc2c([nH]c3ccccc23)[C@@](C(=O)OC)(c2cc3c(cc2OC)N(C)C2C4(C(=O)OC)OC5C=CN6CCC32C6[C@]5(CC)C4OC(C)=O)C1 (stereo not given in full),14 µg/mL
2,CCC(=O)C[C@@H]1CN(C=O)CCc2c([nH]c3ccccc23)[C@@](C(=O)OC)(c2cc3c(cc2OC)N(C)[C@H]2[C@@](O)(C(=O)OC)[C@H](OC(C)=O)[C@]4(CC)C=CCN5CC[C@]32[C@@H]54)C1,7.7 µg/mL
3,CC[C@]1(O)C[C@@H]2CN(CCc3c([nH]c4ccccc34)[C@@](C(=O)OC)(c3cc4c(cc3OC)N(C)[C@H]3[C@@](O)(C(=O)OC)[C@H](OC(C)=O)[C@]5(CC)C=CCN6CC[C@]43[C@@H]65)C2)C1 [VINBLASTINE],0.1 µg/mL
4,CC[C@]1(O)C[C@H]2CN(CCc3c([nH]c4ccccc34)[C@@](C(=O)OC)(c3cc4c(cc3OC)N(C=O)[C@H]3[C@@](O)(C(=O)OC)[C@H](OC(C)=O)[C@]5(CC)C=CCN6CC[C@]43[C@@H]65)C2)C1 [VINCRISTINE],0.025 µg/mL
5,CC[C@]12CN3CCc4c([nH]c5ccccc45)[C@@](C(=O)OC)(c4cc5c(cc4OC)N(C)[C@H]4[C@@](O)(C(=O)OC)[C@H](OC(C)=O)[C@]6(CC)C=CCN7CC[C@]54[C@@H]76)C[C@@H](C3)[C@H]1O2.CC[C@]12CN3CCc4c([nH]c5ccccc45)[C@@](C(=O)OC)(c4cc5c(cc4OC)N(C)[C@H]4[C@@](O)(C(=O)OC)[C@H](OC(C)=O)[C@]6(CC)C=CCN7CC[C@]54[C@@H]76)C[C@@H](C3)[C@H]1O2.O=S(=O)(O)O [VINLEUROSINE SULFATE],0.4 µg/mL
